Marks after values point to notes of the source that are not given here.
Key:
[1] = biological target: GluN1-1a/GluN2B NMDAR (wildtype) (Rattus norvegicus, UniProt P35439+Q00960); format: cell-based
[2] = biological target: GluN1-1a/GluN2D NMDAR (Rattus norvegicus, UniProt P35439+Q62645); test: cell-based; details: read-out: ion current inhibition % ± SEM, GluN2D
[3] = biological target: GluN1-1a WT/GluN2B I111A (Rattus norvegicus, UniProt P35439+Q00960, I111A); details: GluN2B I111A
[4] = biological target: GluN1-1a WT/GluN2B F176Y (Rattus norvegicus, UniProt P35439+Q00960, F176Y); details: GluN2B F176Y
[5] = biological target: GluN1-1a L135N/GluN2B WT (Rattus norvegicus, UniProt P35439+Q00960, L135N); details: GluN1-1a L135N
[6] = test system: NMDA receptor-dependent EPSCs in CA1 pyramidal neurons; test: whole cell patch-clamp of evoked NMDAR-dependent EPSCs in hippocampal slices; format: cell-based, C57BL/6J mice; details: n = 5
[7] = biological target: GluN1-1a WT/GluN2B F176A (Rattus norvegicus, UniProt P35439+Q00960, F176A); details: GluN2B F176A
[8] = biological target: GluN1-1a Y109S/GluN2B WT (Rattus norvegicus, UniProt P35439+Q00960, Y109S); details: GluN1-1a Y109S
[9] = biological target: GluN1-1a WT/GluN2B F114A (Rattus norvegicus, UniProt P35439+Q00960, F114A); details: GluN2B F114A
[10] = biological target: GluN1-1a WT/GluN2B E236A (Rattus norvegicus, UniProt P35439+Q00960, E236A); details: GluN2B E236A
[11] = biological target: GluN1-1a/GluN2C NMDAR (Rattus norvegicus, UniProt P35439+Q00961); test: cell-based; details: read-out: ion current inhibition % ± SEM, GluN2C
[12] = biological target: GluN1-1a F113S/GluN2B WT (Rattus norvegicus, UniProt P35439+Q00960, F113S); details: GluN1-1a F113S
[13] = biological target: GluN1-1a/GluN2A NMDAR (Rattus norvegicus, UniProt P35439+Q00959); test: cell-based; details: read-out: ion current inhibition % ± SEM, GluN2A
[14] = biological target: GluN1-1a S132A/GluN2B WT (Rattus norvegicus, UniProt P35439+Q00960, S132A); details: GluN1-1a S132A
[15] = biological target: GluN1-1a WT/GluN2B Q110A (Rattus norvegicus, UniProt P35439+Q00960, Q110A); details: GluN2B Q110A
[16] = maximum inhibition fixed to wildtype value

GluN1-1a/GluN2B NMDAR (wildtype), sequence (Q00960 27-1482, other chains not shown): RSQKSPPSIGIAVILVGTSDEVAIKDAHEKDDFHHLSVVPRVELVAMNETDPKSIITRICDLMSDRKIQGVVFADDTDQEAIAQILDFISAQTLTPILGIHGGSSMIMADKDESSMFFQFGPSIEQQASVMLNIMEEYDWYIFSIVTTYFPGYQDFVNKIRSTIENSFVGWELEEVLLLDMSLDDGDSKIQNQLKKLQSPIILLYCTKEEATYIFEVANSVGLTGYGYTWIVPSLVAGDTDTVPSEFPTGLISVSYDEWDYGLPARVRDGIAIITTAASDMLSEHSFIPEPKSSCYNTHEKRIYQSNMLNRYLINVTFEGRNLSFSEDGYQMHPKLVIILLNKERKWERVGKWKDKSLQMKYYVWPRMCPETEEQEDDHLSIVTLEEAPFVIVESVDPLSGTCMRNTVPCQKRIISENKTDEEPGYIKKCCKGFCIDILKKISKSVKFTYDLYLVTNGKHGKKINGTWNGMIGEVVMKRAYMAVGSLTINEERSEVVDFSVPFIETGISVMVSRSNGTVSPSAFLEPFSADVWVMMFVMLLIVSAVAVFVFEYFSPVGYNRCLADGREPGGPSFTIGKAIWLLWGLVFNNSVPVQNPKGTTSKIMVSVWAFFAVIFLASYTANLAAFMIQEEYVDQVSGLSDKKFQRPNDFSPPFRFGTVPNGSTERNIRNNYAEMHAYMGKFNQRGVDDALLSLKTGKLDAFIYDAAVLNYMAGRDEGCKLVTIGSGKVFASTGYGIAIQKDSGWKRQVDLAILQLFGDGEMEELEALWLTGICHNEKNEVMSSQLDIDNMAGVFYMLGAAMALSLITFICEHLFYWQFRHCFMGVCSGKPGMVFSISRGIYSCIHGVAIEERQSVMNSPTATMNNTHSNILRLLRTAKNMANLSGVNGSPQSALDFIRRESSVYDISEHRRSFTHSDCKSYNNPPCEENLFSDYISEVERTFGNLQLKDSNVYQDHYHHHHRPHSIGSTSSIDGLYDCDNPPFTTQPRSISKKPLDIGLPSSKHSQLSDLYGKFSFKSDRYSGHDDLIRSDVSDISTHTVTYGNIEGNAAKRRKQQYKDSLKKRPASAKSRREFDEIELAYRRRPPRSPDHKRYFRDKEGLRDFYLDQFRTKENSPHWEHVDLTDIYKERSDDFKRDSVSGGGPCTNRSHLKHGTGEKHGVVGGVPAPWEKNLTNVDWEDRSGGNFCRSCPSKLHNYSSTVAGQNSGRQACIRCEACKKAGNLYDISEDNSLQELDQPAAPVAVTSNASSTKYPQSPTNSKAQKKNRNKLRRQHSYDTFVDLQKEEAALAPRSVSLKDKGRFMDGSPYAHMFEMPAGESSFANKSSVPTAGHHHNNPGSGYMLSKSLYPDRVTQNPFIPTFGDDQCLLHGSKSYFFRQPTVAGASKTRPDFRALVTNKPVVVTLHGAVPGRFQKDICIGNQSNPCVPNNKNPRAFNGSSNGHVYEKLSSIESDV
GluN1-1a WT/GluN2B F114A, sequence (Q00960 27-1482 F114A, other chains not shown): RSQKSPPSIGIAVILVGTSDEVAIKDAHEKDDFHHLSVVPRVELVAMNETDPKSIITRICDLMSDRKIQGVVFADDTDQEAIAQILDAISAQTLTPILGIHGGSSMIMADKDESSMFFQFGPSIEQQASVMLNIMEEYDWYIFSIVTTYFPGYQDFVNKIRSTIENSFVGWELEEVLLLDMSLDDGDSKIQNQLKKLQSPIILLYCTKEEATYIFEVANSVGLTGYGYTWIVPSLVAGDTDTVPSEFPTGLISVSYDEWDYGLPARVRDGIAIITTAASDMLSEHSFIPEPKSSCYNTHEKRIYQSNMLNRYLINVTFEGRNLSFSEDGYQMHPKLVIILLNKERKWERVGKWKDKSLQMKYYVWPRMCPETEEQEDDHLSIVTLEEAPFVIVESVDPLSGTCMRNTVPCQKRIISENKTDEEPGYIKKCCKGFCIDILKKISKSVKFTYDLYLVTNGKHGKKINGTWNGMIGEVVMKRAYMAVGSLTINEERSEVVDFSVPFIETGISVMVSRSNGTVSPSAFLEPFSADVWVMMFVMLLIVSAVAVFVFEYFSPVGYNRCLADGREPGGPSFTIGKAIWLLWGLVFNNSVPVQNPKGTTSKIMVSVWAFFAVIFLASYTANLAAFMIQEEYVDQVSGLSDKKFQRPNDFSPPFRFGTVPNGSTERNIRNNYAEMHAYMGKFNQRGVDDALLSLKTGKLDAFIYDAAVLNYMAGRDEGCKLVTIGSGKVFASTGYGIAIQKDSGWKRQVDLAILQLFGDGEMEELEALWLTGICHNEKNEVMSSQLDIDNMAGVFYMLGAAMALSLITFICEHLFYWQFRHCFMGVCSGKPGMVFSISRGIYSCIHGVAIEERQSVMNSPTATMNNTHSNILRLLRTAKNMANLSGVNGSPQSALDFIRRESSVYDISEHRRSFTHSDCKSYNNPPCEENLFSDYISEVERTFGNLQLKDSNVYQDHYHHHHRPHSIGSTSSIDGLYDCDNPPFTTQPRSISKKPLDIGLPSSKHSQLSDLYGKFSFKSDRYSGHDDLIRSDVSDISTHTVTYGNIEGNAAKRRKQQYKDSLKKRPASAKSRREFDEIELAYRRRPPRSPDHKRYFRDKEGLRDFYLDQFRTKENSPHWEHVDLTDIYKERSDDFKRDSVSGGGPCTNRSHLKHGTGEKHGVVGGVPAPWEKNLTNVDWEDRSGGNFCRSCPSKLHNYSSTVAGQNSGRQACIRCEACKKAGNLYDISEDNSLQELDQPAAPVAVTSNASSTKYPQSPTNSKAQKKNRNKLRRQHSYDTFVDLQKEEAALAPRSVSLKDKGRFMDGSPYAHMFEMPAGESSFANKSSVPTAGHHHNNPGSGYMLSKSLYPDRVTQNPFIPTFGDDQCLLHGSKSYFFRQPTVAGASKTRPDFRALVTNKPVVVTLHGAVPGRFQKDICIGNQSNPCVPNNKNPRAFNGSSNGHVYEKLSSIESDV
GluN1-1a WT/GluN2B I111A, sequence (Q00960 27-1482 I111A, other chains not shown): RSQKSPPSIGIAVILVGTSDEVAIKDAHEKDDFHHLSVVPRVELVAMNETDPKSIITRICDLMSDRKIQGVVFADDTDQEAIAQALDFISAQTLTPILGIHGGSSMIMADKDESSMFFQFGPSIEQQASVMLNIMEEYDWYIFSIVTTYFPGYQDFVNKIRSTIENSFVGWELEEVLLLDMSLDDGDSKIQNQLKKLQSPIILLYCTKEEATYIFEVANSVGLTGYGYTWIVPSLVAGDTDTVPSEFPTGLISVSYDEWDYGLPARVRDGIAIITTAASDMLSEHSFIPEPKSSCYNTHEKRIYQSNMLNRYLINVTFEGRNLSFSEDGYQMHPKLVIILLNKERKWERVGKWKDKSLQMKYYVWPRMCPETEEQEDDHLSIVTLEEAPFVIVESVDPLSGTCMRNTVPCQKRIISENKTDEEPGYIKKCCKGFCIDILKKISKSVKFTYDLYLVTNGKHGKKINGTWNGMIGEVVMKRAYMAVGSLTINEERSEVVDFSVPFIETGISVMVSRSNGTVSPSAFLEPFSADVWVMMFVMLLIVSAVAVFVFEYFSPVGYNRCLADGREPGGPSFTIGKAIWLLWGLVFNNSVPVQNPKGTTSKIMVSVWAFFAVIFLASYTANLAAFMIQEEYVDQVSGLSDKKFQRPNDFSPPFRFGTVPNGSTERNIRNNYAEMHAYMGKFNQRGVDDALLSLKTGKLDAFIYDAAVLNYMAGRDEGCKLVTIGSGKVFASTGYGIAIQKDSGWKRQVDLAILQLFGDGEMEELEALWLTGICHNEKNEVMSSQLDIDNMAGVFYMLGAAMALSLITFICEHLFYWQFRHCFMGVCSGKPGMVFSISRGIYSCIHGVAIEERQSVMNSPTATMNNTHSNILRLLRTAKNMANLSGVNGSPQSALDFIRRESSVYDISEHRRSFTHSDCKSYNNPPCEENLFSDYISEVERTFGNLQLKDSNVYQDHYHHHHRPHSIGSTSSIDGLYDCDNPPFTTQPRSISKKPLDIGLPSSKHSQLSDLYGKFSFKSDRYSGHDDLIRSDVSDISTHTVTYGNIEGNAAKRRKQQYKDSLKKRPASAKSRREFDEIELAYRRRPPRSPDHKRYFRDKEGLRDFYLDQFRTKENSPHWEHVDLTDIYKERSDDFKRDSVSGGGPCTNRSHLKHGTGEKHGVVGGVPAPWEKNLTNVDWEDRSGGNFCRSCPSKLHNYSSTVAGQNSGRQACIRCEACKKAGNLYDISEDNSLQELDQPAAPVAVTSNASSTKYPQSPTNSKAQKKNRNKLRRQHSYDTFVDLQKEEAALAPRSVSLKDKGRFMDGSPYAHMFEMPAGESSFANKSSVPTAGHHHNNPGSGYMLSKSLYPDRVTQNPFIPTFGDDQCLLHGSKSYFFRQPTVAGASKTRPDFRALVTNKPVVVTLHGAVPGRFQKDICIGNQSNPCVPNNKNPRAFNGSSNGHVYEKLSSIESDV

For Oc1ccc2c(c1)CCN([C@H]1CC[C@H](c3ccccc3)CC1)CC2O (some centres unmarked) [compound 6], the IC50 ([1]; TEVC, holding potential −70 mV, 10 µM glycine and 10 µM (S)-glutamate, wildtype, read-out: IC50 ± SE) was 2630 ± 296 nM, the “p (slope of the dose-response curve)” value ([1]; TEVC, −70 mV, wildtype) was 0.70 and the “A2 (maximum inhibition), set as identical with rac-1” value ([1]; due to non-saturating inhibition A2 was fixed, not fitted) was 93^d %.
For CC(C(O)c1ccc(O)cc1)N1CCC(Cc2ccccc2)CC1 (centres unmarked) [ifenprodil, reference compound], the inhibition at 10 µM [2] was 24 ± 4%, the “p (slope)” value [3] was 0.90 and the “A2 ± SE” value ([3]; flexible A2) was 68 ± 7%. The “p (slope)” value [4] was 0.57, the “A2, fixed-to-wildtype (*)” value [4, 16] was 94% and the “p (slope)” value [5] was 0.99. For the same molecule, the “A2 ± SE” value ([5]; flexible A2) was 76 ± 3%, the “p (slope of the dose-response curve)” value ([1]; TEVC, −70 mV, wildtype) was 0.97 and the “A2 ± SE (maximum inhibition from dose-response curve)” value ([1]; TEVC, −70 mV, wildtype, flexible A2) was 94 ± 2%. For the same molecule, the inhibition at 10 µM ([1]; read-out: ion current inhibition % ± SEM, GluN2B) was 91 ± 1%, the “EPSC amplitude, % of the initial baseline (SEM)” value ([6]; 1 µM compound) was 74.4 ± 8.9% and the “EPSC amplitude, % of the initial baseline (SEM)” value ([6]; 6 µM compound) was 22.7 ± 4.7%. For the same molecule, the “EPSC amplitude after washout, % of the initial baseline (SEM)” value ([6]; washout of compound) was 31.9 ± 5%, the “p (slope)” value [7] was 0.87 and the “A2, fixed-to-wildtype (*)” value [7, 16] was 94%. The “p (slope)” value [8] was 0.88, the “A2 ± SE” value ([8]; flexible A2) was 74 ± 2% and the “p (slope)” value [9] was 0.63. For the same molecule, the “A2, fixed-to-wildtype (*)” value [9, 16] was 94%, the “p (slope)” value [10] was 1.18 and the “A2 ± SE” value ([10]; flexible A2) was 88 ± 5%. The inhibition at 10 µM [11] was 9 ± 1%, the “p (slope)” value [12] was 1.09 and the “A2 ± SE” value ([12]; flexible A2) was 72 ± 3%. For the same molecule, the inhibition at 10 µM [13] was 5 ± 1%, the “p (slope)” value [14] was 0.79 and the “A2 ± SE” value ([14]; flexible A2) was 89 ± 3%. For the same molecule, the “p (slope)” value [15] was 0.64 and the “A2 ± SE” value ([15]; flexible A2) was 98 ± 5%.
